Data published in PubChem BioAssay (NCI).
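96-well plates; 48 h exposure; 5 concentrations. Endpoints by linear interpolation between flanking doses. Not reached: highest tested concentration assigned. GI50 = concentration required for 50% inhibition of growth. TGI: concentration producing complete growth inhibition.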

What was measured:
Experiment in all cases: NCI tumour cell line growth inhibition, 48 h
[1] = system: M19-MEL melanoma
[2] = system: SR leukemia
[3] = system: DLD-1 colon
[4] = system: KM20L2 colon
[5] = system: DMS 114 small cell lung
[6] = system: LXFL 529 NSCLC
[7] = system: RXF-631 renal
[8] = system: SN12K1 renal
[9] = system: P388 leukemia
[10] = system: P388/ADR leukemia

With O=Nc1ccc(O)c2ncccc12 the TGI [1] was 16.4 µM, the TGI [2] was > 100 µM and the TGI [3] was 25.3 µM. It also gave a TGI [4] of 89.9 µM, a TGI [5] of 12.4 µM and a TGI [6] of 12.9 µM.
In the case of CCN=C=NCCCN(C)C, the TGI [2] is reported as > 100 µM.
With C/C1=N\NC(=O)c2ccccc2C(=O)N/N=C(\C)c2cccc1n2.O=[N+]([O-])[O-].[Zn+2] the TGI [3] was > 100 µM, the TGI [4] was > 100 µM and the TGI [5] was > 100 µM. The TGI [6] was > 100 µM.
With OC(Cc1ccccc1)(Cc1ccccc1)c1ccccc1 the TGI [2] was 80.8 µM.
With O=S(=O)(O)c1cc(N=Nc2cc(S(=O)(=O)O)c3ccccc3c2O)ccc1/C=C/c1ccc(N=Nc2cc(S(=O)(=O)O)c3ccccc3c2O)cc1S(=O)(=O)O the GI50 [1] was > 1 mM, the TGI [1] was > 1000 µM and the GI50 [2] was 32.8 µM. For the same compound, the TGI [2] was 70.6 µM, the GI50 [3] was > 1 mM and the TGI [3] was > 1000 µM. The GI50 [5] was > 1 mM, the TGI [5] was > 1000 µM and the TGI [6] was > 1000 µM.
C=C(CN(C)C)C(=O)c1ccc(C)cc1C gave a TGI [1] of 43.1 µM, a TGI [2] of 4.26 µM and a TGI [3] of 14.2 µM. For the same compound, the TGI [7] was 36.9 µM, the TGI [4] was 39 µM and the TGI [5] was 46.6 µM. It also gave a TGI [6] of 26.9 µM.
For CC(C)(C)C1(c2ccc(C3(c4ccccc4)Oc4ccccc4S3)[nH]2)Oc2ccccc2S1 (centres undefined), the TGI [1] was > 100 µM, the TGI [3] was > 100 µM and the TGI [7] was > 100 µM. The TGI [4] was > 100 µM, the TGI [5] was > 100 µM and the TGI [6] was > 100 µM.
In the case of O=C(O)CC(C(=O)O)C1c2ccccc2-c2ccccc21 (centres undefined), the TGI [2] is reported as > 100 µM.
Compound COC1/C=C\OC2(C)Oc3c(C)c(O)c4c(O)c(c(/C=N\OCCCc5ccccc5)c(O)c4c3C2=O)NC(=O)/C(C)=C\C=C/C(C)C(O)C(C)C(O)C(C)C(OC(C)=O)C1C (centres undefined) has a TGI [2] of 5.98 µM.
c1ccc(-n2cnnc2-c2nsc3ccccc23)cc1 was tested, and the TGI [1] was > 100 µM, the TGI [4] was > 100 µM and the TGI [6] was > 100 µM.
For Nc1cc(S(=O)(=O)O)cc2cc(S(=O)(=O)O)c(N=Nc3ccc(-c4ccc(N=Nc5c(S(=O)(=O)O)cc6cc(S(=O)(=O)O)cc(N)c6c5O)cc4)cc3)c(O)c12, the TGI [8] was > 100 µM, the TGI [1] was > 100 µM and the TGI [3] was > 100 µM. For the same compound, the TGI [9] was > 100 µM, the TGI [4] was > 100 µM and the TGI [5] was > 100 µM.
For C=C(C)C(=O)OC1C(C(C)CCCO)=C(CO)CC2OC(=O)C(=C)C21 (centres undefined), the TGI [2] was > 100 µM.
In the case of C=C(C)C1CC2=C(O1)C(=O)c1ccccc1C2=O (centres undefined), the TGI [3] is reported as 52.1 µM, the TGI [7] is reported as 40.3 µM and the TGI [5] is reported as 32.9 µM. For the same compound, the TGI [6] was 31.4 µM.
Work on COc1ccc(-c2nn(-c3ccc(NC(=O)Nc4ccc(Cl)c(Cl)c4)cc3)cc2-c2ccncc2)cc1Cl yielded a GI50 [2] of 2.65 µM and a TGI [2] of 35.6 µM.
CC(C)=CCc1c(O)ccc2c1OC1c3ccc(O)c(CC=C(C)C)c3OCC21 (centres undefined) was tested, and the TGI [8] was 20.2 µM, the TGI [1] was 24.2 µM and the TGI [3] was 18.9 µM. The TGI [9] was 37.4 µM, the TGI [10] was 32.2 µM and the TGI [4] was 34 µM. The TGI [5] was 26.3 µM.
